Bounds are passed on as bounds.

One experiment deals with T1, G1 APOL1 (Homo sapiens, UniProt O14791, I384M/S342G).
T1 construct: expressed in transfected cells
T1 sequence (O14791 28-398 S342G/I384M): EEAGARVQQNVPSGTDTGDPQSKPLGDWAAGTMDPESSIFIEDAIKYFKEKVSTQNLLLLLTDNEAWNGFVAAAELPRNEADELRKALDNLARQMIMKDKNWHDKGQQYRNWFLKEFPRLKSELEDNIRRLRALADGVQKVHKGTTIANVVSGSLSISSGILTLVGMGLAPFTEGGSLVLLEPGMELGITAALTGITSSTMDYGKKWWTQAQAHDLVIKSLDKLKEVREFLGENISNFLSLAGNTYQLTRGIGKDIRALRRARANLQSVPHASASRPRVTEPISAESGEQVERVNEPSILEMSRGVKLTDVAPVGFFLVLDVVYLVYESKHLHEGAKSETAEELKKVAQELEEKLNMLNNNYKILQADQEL
The experiment in a line: Acute APOL1 Thallium Assay with Inducible Stable Clones of HEK 293 Cells.
Conditions: not given
The class given is cell-based. In short, it runs like this: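 Pore activity was read as the fluorescence increase from Tl+ entering cells loaded with an AM-ester thallium indicator dye. The cells were tetracycline-inducible HEK293 T-Rex expressing G1 APOL1 (clone DC3.25), induced when plated at 26000 per well and incubated at 37° C.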
Turning to `CN(C)CCc1c(-c2ccc(F)cc2)[nH]c2c(F)cc(F)cc12` [Compound 429, 2-[5,7-difluoro-2-(4-fluorophenyl)-1H-indol-3-yl]-N,N-dimethyl-ethanamine], the IC50 (as a rule, the point on the concentration scale where inhibition reaches its midpoint) is more than 1 µM.

The same experiment, now with this note: HEK 293 inducible stable clones, G1 APOL1; read-out: Thallium Assay (IC50).
Turning to `C[C@H](NC(=O)NCCc1c(-c2ccc(F)cc2)[nH]c2c(F)cc(F)cc12)C(C)(C)O` [Compound 268], the IC50 was more than 1 µM.
For the compound `O=C(NC(CO)CO)OCCc1c(-c2ccc(F)cc2)[nH]c2c(F)cc(F)cc12` [Compound 437], the IC50 was less than 0.25 µM.
In the case of `C[C@@H](O)[C@@H](CO)NC(=O)OCCc1c(-c2ccc(F)cc2)[nH]c2c(F)cc(F)cc12` [Compound 454], the IC50 was in the range of 0.25 to 1 µM.
Turning to `CC(CC(=O)NC(CO)C(F)(F)F)c1c(-c2ccc(F)cc2)[nH]c2c(F)cc(F)cc12` (single isomer, unassigned) [Compound 514], the IC50 is more than 1 µM.
Consider `Cc1ccc(C(=O)NCCc2c(-c3ccc(F)cc3)[nH]c3c(F)cc(F)cc23)o1` [Compound 393], for which the IC50 is more than 1 µM.
Still for that read-out and setting: the value for `O=C(NCCc1c(-c2ccc(F)cc2)[nH]c2c(F)cc(F)cc12)c1cccnn1` [Compound 396] was more than 1 µM; that for `O=C(NCCc1c(-c2ccc(F)cc2)[nH]c2c(F)cc(F)cc12)c1ncccn1` [Compound 397] was more than 1 µM; that for `O=C(NCCc1c(-c2ccc(F)cc2)[nH]c2c(F)cc(F)cc12)c1ccccn1` [Compound 403] was more than 1 µM.
The same measure, in the same setting: the figure for `CC(C)(CO)NC(=O)OCCc1c(-c2ccc(F)cc2)[nH]c2c(F)cc(F)cc12` [Compound 435] is less than 0.25 µM.
In the case of `Cn1ccnc1S(=O)(=O)NCCc1c(-c2ccc(F)cc2)[nH]c2c(F)cc(F)cc12` [Compound 424], the IC50 is more than 1 µM.
The same measure, in the same setting: the value for `O=C(NCCO)NCCc1c(-c2ccc(F)cc2)[nH]c2c(F)cc(F)cc12` [Compound 286] was more than 1 µM; that for `NC(=O)C1(C(=O)NCCc2c(-c3ccc(F)cc3)[nH]c3c(F)cc(F)cc23)CC1` [Compound 339] was 0.25 to 1 µM.
Consider `O=C(NCCc1c(-c2ccc(F)cc2)[nH]c2c(F)cc(F)cc12)c1ccc[nH]1` [Compound 354], for which the IC50 is more than 1 µM.
Consider `O=C(NCCc1c(-c2ccc(F)cc2)[nH]c2c(F)cc(F)cc12)c1cc(C(F)(F)F)n[nH]1` [Compound 315], for which the IC50 is more than 1 µM.
On to `NC(=O)C(=O)NCCc1c(-c2ccc(F)cc2)[nH]c2c(F)cc(F)cc12` [Compound 364], for which the IC50 was 0.25 to 1 µM.
Regarding `CC(C)(O)CCNC(=O)OCCc1c(-c2ccc(F)cc2)[nH]c2c(F)cc(F)cc12` [Compound 458], the IC50 lay in the range of 0.25 to 1 µM.
Same read-out and setting: the value for `O=C(Cn1nccn1)NCCc1c(-c2ccc(F)cc2)[nH]c2c(F)cc(F)cc12` [Compound 387] was more than 1 µM.
Regarding `CC1(C(=O)NCCc2c(-c3ccc(F)cc3)[nH]c3c(F)cc(F)cc23)COC1` [Compound 410], the IC50 was 0.25 to 1 µM.
Turning to `Cn1cc(CNC(=O)CCCc2c(-c3ccc(F)cc3)[nH]c3c(F)cc(F)cc23)nn1` [Compound 251], the IC50 was more than 1 µM.
Turning to `Nc1ncc(C(=O)NCCc2c(-c3ccc(F)cc3)[nH]c3c(F)cc(F)cc23)s1` [Compound 328], the half-inhibitory concentration (IC50) is more than 1 µM.
Consider `O=C(NCCc1c(-c2ccc(F)cc2)[nH]c2c(F)cc(F)cc12)C1(O)COC1` [Compound 342], for which the IC50 was in the range of 0.25 to 1 µM.
`O=C1N[C@H](C(=O)NCCc2c(-c3ccc(F)cc3)[nH]c3c(F)cc(F)cc23)CS1` [Compound 322]: the IC50 was more than 1 µM.
In the case of `O=CNCCc1c(-c2ccc(F)cc2)[nH]c2c(F)cc(F)cc12` [Compound 419, N-[2-[5,7-difluoro-2-(4-fluorophenyl)-1H-indol-3-yl]ethyl]formamide], the IC50 was more than 1 µM.
Same read-out and setting: the figure for `O=C(NCc1ccco1)OCCc1c(-c2ccc(F)cc2)[nH]c2c(F)cc(F)cc12` [Compound 481] is more than 1 µM; for `O=C(NCCc1c(-c2ccc(F)cc2)[nH]c2c(F)cc(F)cc12)NCC1(O)CCC1` [Compound 275] it is more than 1 µM.
In the case of `C[C@@H](CO)NC(=O)N(C)CCc1c(-c2ccc(F)cc2)[nH]c2c(F)cc(F)cc12` [Compound 303], the IC50 is more than 1 µM.
Regarding `N#Cc1ccc(-c2[nH]c3c(F)cc(F)cc3c2/C=C/C(=O)N[C@H]2CCNC2=O)cc1` [Compound 522, (E)-3-[2-(4-cyanophenyl)-5,7-difluoro-1H-indol-3-yl]-N-[(3S)-2-oxopyrrolidin-3-yl]prop-2-enamide], the IC50 is more than 1 µM.
Turning to `NC(=O)[C@@H](CO)NC(=O)CCc1c(-c2ccc(F)cc2)[nH]c2c(F)cc(Cl)cc12` [Compound 202], the IC50 is more than 1 µM.
With `NC(=O)CCCc1c(-c2ccc(F)cc2)[nH]c2c(F)cc(F)cc12` [Compound 243], the IC50 is more than 1 µM.
Same read-out and setting: the value for `CS(=O)(=O)CC(=O)NCCc1c(-c2ccc(F)cc2)[nH]c2c(F)cc(F)cc12` [Compound 382] was more than 1 µM; that for `O=C(NCCc1c(-c2ccc(F)cc2)[nH]c2c(F)cc(F)cc12)NCC1CC(F)(F)C1` [Compound 289] was more than 1 µM.
Same read-out and setting: the value for `O=C(NCCc1c(-c2ccc(F)cc2)[nH]c2c(F)cc(F)cc12)c1cn[nH]c1` [Compound 352] was more than 1 µM; that for `O=C(CCc1c(-c2ccc(F)cc2)[nH]c2c(Cl)cccc12)N[C@@H](CO)C(F)F` [Compound 231, 3-[7-chloro-2-(4-fluorophenyl)-1H-indol-3-yl]-N-[(1S)-2,2-difluoro-1-(hydroxymethyl)ethyl]propanamide] was less than 0.25 µM.
Still for that read-out and setting: the figure for `CC(O)(CO)CNC(=O)CCCc1c(-c2ccc(F)cc2)[nH]c2c(F)cc(F)cc12` (centres unmarked) [Compound 250] is more than 1 µM; for `O=C(NCCc1c(-c2ccc(F)cc2)[nH]c2c(F)cc(F)cc12)c1ccncc1` [Compound 402] it is more than 1 µM.
For `C[C@H](CO)NC(=O)CCCc1c(-c2ccc(F)cc2)[nH]c2c(F)cc(F)cc12` [Compound 241], the IC50 fell in the range of 0.25 to 1 µM.
Still for that read-out and setting: the value for `O=C(NCCc1c(-c2ccc(F)cc2)[nH]c2c(F)cc(F)cc12)NCC(O)C(F)F` (centres unmarked) [Compound 267] was more than 1 µM.
As to `CS(=O)(=O)NCC(=O)NCCc1c(-c2ccc(F)cc2)[nH]c2c(F)cc(F)cc12` [Compound 321], the IC50 was more than 1 µM.
Consider `O=C(CN1CCCC1=O)NCCc1c(-c2ccc(F)cc2)[nH]c2c(F)cc(F)cc12` [Compound 375], for which the IC50 was more than 1 µM.
Turning to `C[C@H](CO)NC(=O)CCc1c(-c2ccc(F)cc2)[nH]c2c(F)cc(Cl)cc12` [Compound 208], the IC50 is less than 0.25 µM.
Same read-out and setting: the figure for `Cn1cnc(C(=O)NCCc2c(-c3ccc(F)cc3)[nH]c3c(F)cc(F)cc23)c1` [Compound 389] is more than 1 µM.
With `CC(CC(=O)NCCc1c(-c2ccc(F)cc2)[nH]c2c(F)cc(F)cc12)C(N)=O` (racemic) [Compound 335], the IC50 is more than 1 µM.
As to `O=C(NCCc1c(-c2ccc(F)cc2)[nH]c2c(F)cc(F)cc12)N[C@@H](CO)C(F)(F)F` [Compound 261], the IC50 was in the range of 0.25 to 1 µM.
Regarding `CC1(CO)CCN1C(=O)OCCc1c(-c2ccc(F)cc2)[nH]c2c(F)cc(F)cc12` (racemic) [Compound 480], the IC50 was more than 1 µM.
Turning to `O=C(NCc1cccnc1)OCCc1c(-c2ccc(F)cc2)[nH]c2c(F)cc(F)cc12` [Compound 497], the half-inhibitory concentration (IC50) was more than 1 µM.
Turning to `O=C(/C=C/c1c(-c2ccc(F)cc2)[nH]c2c(F)cc(F)cc12)N[C@H]1CCNC1=O` [Compound 519, (E)-3-[5,7-difluoro-2-(4-fluorophenyl)-1H-indol-3-yl]-N-[(3S)-2-oxopyrrolidin-3-yl]prop-2-enamide], the IC50 is less than 0.25 µM.
On the same count and under the same terms, the value for `O=C(NCCc1c(-c2ccc(F)cc2)[nH]c2c(F)cc(F)cc12)NC1(CCO)CC1` [Compound 274] was 0.25 to 1 µM.
As to `O=C1CC(C(=O)NCCc2c(-c3ccc(F)cc3)[nH]c3c(F)cc(F)cc23)CC(=O)N1` [Compound 320], the IC50 was more than 1 µM.
Take `Cn1nccc1C(=O)NCCc1c(-c2ccc(F)cc2)[nH]c2c(F)cc(F)cc12` [Compound 392]: the half-maximal inhibitory concentration (IC50) lay within 0.25 to 1 µM.
`CC(=O)NCC(=O)NCCc1c(-c2ccc(F)cc2)[nH]c2c(F)cc(F)cc12` [Compound 344]: the IC50 was more than 1 µM.
On to `O=C(Nc1cc(=O)[nH][nH]1)OCCc1c(-c2ccc(F)cc2)[nH]c2c(F)cc(F)cc12` [Compound 488], for which the IC50 is more than 1 µM.
On to `O=C(CCCc1c(-c2ccc(F)cc2)[nH]c2c(F)cc(F)cc12)N1C[C@@H](O)[C@H](O)C1` [Compound 248], for which the IC50 was more than 1 µM.
Take `Cn1cc(CNC(=O)CCCc2c(-c3ccc(F)cc3)[nH]c3c(F)cc(F)cc23)cn1` [Compound 254]: the IC50 is more than 1 µM.
For the compound `NCCc1c(-c2ccc(F)cc2)[nH]c2c(F)cc(F)cc12` [Compound 432, 2-[5,7-difluoro-2-(4-fluorophenyl)-1H-indol-3-yl]ethanamine], the IC50 was more than 1 µM.
Same read-out and setting: the value for `C[C@H](O)CNC(=O)NCCc1c(-c2ccc(F)cc2)[nH]c2c(F)cc(F)cc12` [Compound 284] was more than 1 µM; that for `O=C(CCc1c(-c2ccc(F)cc2)[nH]c2ccc(F)cc12)N[C@@H](CO)C(F)F` [Compound 3] was 0.25 to 1 µM.
The same measure, in the same setting: the value for `O=C(NCc1cn(CC(F)(F)F)cn1)OCCc1c(-c2ccc(F)cc2)[nH]c2c(F)cc(F)cc12` [Compound 493] was more than 1 µM; that for `O=C(NCCc1c(-c2ccc(F)cc2)[nH]c2c(F)cc(F)cc12)N[C@@H]1CC[C@@H](O)C1` [Compound 273] was more than 1 µM.

For the origin of these results see patent US20230014907A1, “INHIBITORS OF APOL1 AND METHODS OF USING SAME” (Vertex Pharmaceuticals Incorporated, priority 2020, published 2023).
